From US9056862B2, “Thioxothiazolidine derivative having Ras function inhibitory effect” (NATIONAL UNIVERSITY CORPORATION KOBE UNIVERSITY, priority 2011, dated 2015) come the findings set out here.

One experiment concerns the target T1, Ras-Raf binding.
T1 construct: fused on or other part: GST tag on Ras was cleaved off with PreScission protease before the test
In words: In vitro binding assay: Ras-Raf binding inhibition (GST-Raf on resin, GTPγ[35S]-labeled Ras, scintillation counting). As to conditions: GST-Raf fusion protein on resin, radioactive Ras, compound dissolved in 10% DMSO. Here is the method: • 1) A fusion protein of Raf (target protein of Ras) and GST (glutathione S-transferase) was expressed in Escherichia coli using GST fusion protein expression vector (pGEX-6P-1 vector (GE Healthcare)). The expressed GST-Raf fusion protein was immobilized on an affinity carrier for purification (glutathione Sepharose 4B: resin (GE Healthcare)). • 2) Radioisotope-labeled Ras
GTPγ[^35S] (Perkin Elmer), which is one of the GTP analogs, was added to Ras in which GST tag was cleaved using GST fusion protein cleavage protease (PreScission protease (GE Healthcare)) to prepare radioisotope-labeled Ras. • 3) Measurement of Ras-Raf binding inhibition activity
GST-Raf fusion protein immobilized on the resin in the above-mentioned 1) and the radioactive Ras prepared in the above-mentioned 2) were incubated in the presence of various concentrations of a compound dissolved in 10% DMSO to promote the binding reaction between Ras and Raf. The resin in the reaction solution was washed, and then, the complex of GST-Raf fusion protein and radioactive Ras was eluted by adding glutathione. The binding activity between Ras and Raf was measured by scintillation counting of the radioactivity of the eluate. Thus, the Ras-Raf binding inhibition activity by addition of various compounds was evaluated.

Experiment [1] has as its system human colorectal cancer cell line, SW480, which has active form of K-Ras. Nature of the experiment: In vivo assay: tumor growth inhibition in SW480 xenograft in nude mice. Conditions: 80 mg/kg orally once a day, five consecutive days per week, after three-week administration; SW480 subcutaneous in female nude mice; control group = 100%. Here is the method: A cell suspension (about 2×10^6 cells) of human colorectal cancer cell line, SW480, which has active form of K-Ras, was subcutaneously inoculated and implanted with a syringe at the right flank of 6 to 8-week-old nude mice (female). After a tumor grew to the grossly recognizable size (40-100 mm^3), a compound (80 mg/kg) dissolved in a solvent (Cremophor EL:Ethanol:Water=1:1:6) was orally administered once a day for five consecutive days per week. This is considered as the compound administration group. A solvent alone was administered to control group in the same manner. After the compound administration started, tumor volumes of both the groups were measured twice a week. Tumor growth inhibition rates were calculated by comparing tumor volumes of control group (100%) and those of compound administration group after three-week administration to evaluate anticancer activity of a compound. The tumor growth inhibition rates in the case of orally administering compounds of the present invention at 80 mg/Kg are shown in the following Table 7.

As a reminder, the IC50 is the point on the concentration scale where inhibition reaches its midpoint.

Regarding `O=C1/C(=C/c2cccc(Oc3ccccc3)c2)SC(=S)N1NC1=NS(=O)(=O)c2ccccc21` [Example 12], the IC50 on Ras-Raf binding was 50 µM. The “tumor growth inhibition rate (%)” value in experiment [1] is reported as 86%.

Regarding `O=C1/C(=C/c2ccccc2OCCOc2ccc([N+](=O)[O-])cc2)SC(=S)N1NC1=NS(=O)(=O)c2ccccc21` [Example 56], the 50% inhibitory concentration (IC50) on Ras-Raf binding worked out at 90 µM. Besides, the “tumor growth inhibition rate (%)” value in experiment [1] is on record as 62%.

For the compound `O=C1/C(=C/c2ccc([N+](=O)[O-])cc2[N+](=O)[O-])SC(=S)N1NC1=NS(=O)(=O)c2ccccc21` [Example 7], on Ras-Raf binding, the IC50 was determined as 200 µM. Moreover, in experiment [1], the “tumor growth inhibition rate (%)” value turned out to be 85%.

Regarding `O=C1/C(=C/c2ccc(Br)cc2)SC(=S)N1NC1=NS(=O)(=O)c2ccccc21` [Example 6], the half-inhibitory concentration (IC50) at Ras-Raf binding was determined as 400 µM. In experiment [1], the “tumor growth inhibition rate (%)” value is on record as 85%.

For `O=C1/C(=C/c2ccc(OCc3ccccc3)cc2)SC(=S)N1NC1=NS(=O)(=O)c2ccccc21` [Example 16], the IC50 on Ras-Raf binding came to 100 µM. In addition, the “tumor growth inhibition rate (%)” value in experiment [1] is recorded as 69%.

As to `O=C1/C(=C/c2ccc(Oc3ccccc3)cc2)SC(=S)N1NC1=NS(=O)(=O)c2ccccc21` [Example 1, 3-[(4-oxo-5-(4-phenoxybenzylidene)-2-thioxothiazolidin-3-yl)amino]-1,2-benzisothiazole 1,1-dioxide], at Ras-Raf binding, the IC50 amounted to 70 µM. Moreover, in experiment [1], the “tumor growth inhibition rate (%)” value amounted to 88%.

Take `CC(C)(C)OC(=O)NCCOc1cccc(C=C2SC(=S)N(NC3=NS(=O)(=O)c4ccccc43)C2=O)c1` [Example 167, 3-[(4-Oxo-5-(3-(2-t-butoxycarbonylaminoethyloxy)benzylidene)-2-thioxothiazolidin-3-yl)amino]-1,2-benzothiazole 1,1-dioxide]: the IC50 at Ras-Raf binding came out at 360 µM.

On to `O=C1/C(=C/c2ccccc2OCCOc2ccccc2)SC(=S)N1NC1=NS(=O)(=O)c2ccccc21` [Example 53], for which the IC50 at Ras-Raf binding was determined as 160 µM.

With `Cc1ccc(OCCOc2ccccc2/C=C2\SC(=S)N(NC3=NS(=O)(=O)c4ccccc43)C2=O)cc1` [Example 55], the IC50 on Ras-Raf binding stood at 100 µM.

Take `O=C1/C(=C/c2ccccc2Oc2ccccc2)SC(=S)N1NC1=NS(=O)(=O)c2ccccc21` [Example 13]: the IC50 on Ras-Raf binding was 100 µM. Moreover, the “tumor growth inhibition rate (%)” value in experiment [1] came to 70%.
